How the values were obtained:
tumor-MDSC [1] = conditions: LLC-bearing mice treated with SFRN
Protocol: For surface staining, cells were labelled with the appropriate antibodies in the presence of Fc blocker. For intracellular staining, surface-labeled cells were fixed with Cytofix/Cytoperm™ Solution (BD Biosciences), washed in Perm/Wash™ 1× solution, and labelled with intracellular antibodies. Cells were then washed in Perm/Wash™ 1× and PBS. Live vs. dead cell discrimination was performed prior to antibody labeling by Zombie Fixable Viability dye (Biolegend). Ex vivo intracellular staining for IL-12 and TNFα was performed on isolated cells after stimulation for 6 hours with LPS (1 μg/ml, Sigma Aldrich) in the presence of Golgi stop (0.8 μl/ml, BD Biosciences). For IFNγ staining, cells were incubated for 5 hours with phorbol myristate acetate (PMA, 750 ng/mL, Sigma Aldrich) and ionomycin (50 μg/mL, Sigma-Aldrich) in the presence and Golgi stop (0.8 μl/ml). For ER-tracker and Mitotracker staining, cells were probed with 100 nM of ER tracker green or 200 nM of Mitotracker green (Invitrogen) and then stained for surface markers. For Mitochondrial membrane potential, cells were stained with JC-1 flow cytometry assay kit (Cayman chemicals) followed by surface markers staining. ROS were detected by DCFDA (10 μM) or Dihydroethidium (DHE, 10 μM). Data acquisition was performed in a CytoFLEX II (Beckman Coulter) or LSRII (BD Biosciences). All analysis was performed using FlowJo version 11 software.

tumor-MDSC [2] = test: Ex vivo suppression assay: tumor-MDSC co-cultured with primed CFSE-labeled T cells; format: cell-based, mice
Protocol: CD3^+ T cells were enriched using mouse or human T cell negative selection kits (MagniSort, Invitrogen) from the spleen and lymph nodes of C57BL/6 mice; or from purchased human buffy-coat units (One-Blood, Tampa, Fla.). Purity ranged between 95% and 99% as tested by flow cytometry. For antigen-specific priming studies, CD8^+ T cells were enriched using negative selection kits from the spleens of OT-I mice previously activated with OVA257-264 (SIINFEKL) for 48 hours. Tumor-MDSC were isolated from cellular suspensions of digested tumors followed by positive selection (MojoSort Streptavidin Nanobeads, Biolegend) using anti-Gr1 (Clone RB6-8C5, eBioscience) or anti-CD11b-biotinylated antibodies (Clone M1/70, StemCell Technologies, Vancouver). Also, M-MDSC (CD11b^+Gr1^+Ly6G^lowLy6C^high), PMN-MDSC (CD11b^+Gr1^+Ly6G^+Ly6C^low), macrophages (CD11b^+Gr1^negF4/80^+CD11c^neg), and myeloid DCs (CD11b^+Gr1^negF4/80^negCD11c^+) were sorted from tumors in a FACSAriaII (BD Biosciences).
(§1) Murine BM-MDSC (ratio 1:1/8) or tumor-MDSC (ratio 1:1/4) were co-cultured with negatively selected CD3^+ T cells in a 96 well plate bound α-CD3 and α-CD28 (1 μg/ml each, eBioscience) for 3 days. T cell proliferation was assessed with Carboxyfluorescein succinimidyl ester (CFSE) or Cell-trace violet (Invitrogen) dye dilution detected by flow cytometry. For human studies, MDSC were co-cultured with enriched CD3^+ T cells activated with soluble α-CD3 (1 μg/ml, clone OKT3) and α-CD28 (0.5 μg/ml, clone L293) for 3 days in a 96 well plate bound with goat anti-mouse IgG (10 μg/ml). Results are expressed as percentage of proliferating T cells, determined by the dilution of fluorescence compared with non-stimulated T cells.

tumor-MDSC [3] = conditions: tumor-bearing Eif2ak3^KO-Lyz2 mice treated with SFRN vs untreated or Eif2ak3^Flox
Protocol: Oxygen consumption rate (OCR) through mitochondrial stress test and extracellular acidification rate (ECAR) by glycolysis stress profile were measured using a XF96 extracellular flux analyzer (Seahorse Bioscience). MDSC were plated onto CellTak pre-coated wells (1×10^5 cells/well in triplicate), and subjected to mitochondrial stress and glycolysis stress protocols using specific non-buffered XF base mediums. For OCR, cells were analyzed under basal conditions and in response to 2 μM oligomycin, 2 μM fluorocarbonyl-cyanide-phenylhydrazone (FCCP), and 0.5 μM rotenone. For ECAR, cells were plated in XF media lacking glucose and monitored under basal conditions and in response to 10 mM glucose, 10 μM oligomycin, and 100 mM 2-Deoxy-D-glucose (2-DG). Final values were obtained after protein normalization among the conditions.

murine BM-MDSC = test: In vitro suppression assay with murine BM-MDSC; format: cell-based, mouse; conditions: for potential of Thaps-treated Eif2ak3^KO-Tek BM-MDSC to impair T cell proliferation: 3 hours pre-treatment, Resveratrol 100 μM or D,L-Sulphoraphane 20 μM
Protocol: (§2) Mouse BM-MDSC were generated after culturing BM precursors with GM-CSF and G-CSF (20 ng/ml each) for 4 days. In vitro generated MDSC were treated with either LLC tumor explant supernatants (TES, since day 0) or Thaps (200 nM, for the last 24 hours of culture). Human BM-MDSC were developed after culturing BM or peripheral blood precursors from healthy donors with GM-CSF and IL-6 (10 ng/ml each) for a period of 6 days (Thevenot et al., 2014). To induce UPR activation, MDSC were treated with either supernatants from renal cell carcinoma cells 786-0 (hTES) for 6 days (Rodriguez et al., 2009) or Thaps during the last 24 hours before collection (200 nM). In some experiments, MDSC were pre-incubated for 3 hours with Resveratrol (100 μM, Sigma-Aldrich), D,L-Sulphoraphane (20 μM), AMG-44 (5 μM), or TUDCA (500 nM) before treating with Thaps.
as §1

LLC tumors = test: s.c. LLC tumor model in mice; format: in vivo
Ifnβ1 mRNA = test: Quantitative PCR of Ifnβ1 mRNA in MDSC; format: cell-based; conditions: mice treated with SFRN vs untreated PERK-null mice
Protocol: Total RNA was isolated from MDSC using TRIzol (Life Technologies). Reverse transcription was performed using Verso cDNA Synthesis Kit (Thermo Scientific). Quantitative PCR reactions were prepared by using Bio-Rad SYBR green master mix and performed on an Applied Biosystems thermocycler (7900 HT) using primers described in Key Resources Table

Arginase I = test: Immunoblot of Arginase I in tumor-MDSC; format: cell-based; conditions: mice treated with TUDCA vs vehicle
Text: (§3) Equal protein amounts of total and nuclear cell lysates were electrophoresed in 8 or 10% Tris-Glycine gels (Novex-Invitrogen), transferred to PVDF membranes by iBlot™ Gel Transfer Device (ThermoFisher), and blotted with the corresponding primary and secondary antibodies described in Key Resources Table. For nuclear fraction isolation, cells were lysed using NE-PER Nuclear and Cytoplasmic extraction kit (ThermoFisher). Membrane-bound immune complexes were detected by ChemiDoc™ Imaging System (Bio-Rad, #17001401).

CD8+ TILs = test: Flow cytometry of tumor-infiltrating CD8+ T cells from treated mice; format: in vivo
Protocol: All analysis was performed using FlowJo version 11 software.

PERK = test: Immunoblot of PERK and phospho-PERK in MDSC; format: cell-based, mice
Text: as §3

IRE1α = test: Immunoblot of IRE1α and phospho-IRE1α in MDSC; format: cell-based, mice
Text: as §3

B16 tumors = test: s.c. B16 melanoma tumor model in mice; format: in vivo
[4] = test system: tumor-MDSC from Pan02-OVA-ZsGreen tumors; test: Cross-presentation by tumor-MDSC from Pan02-OVA-ZsGreen tumors; format: cell-based; conditions: TUDCA-treated mice bearing Pan02-OVA-ZsGreen tumors
Protocol: For antigen loading experiments, MDSC were sorted from LLC tumors and then pulsed with 1 μg/ml complete ovalbumin (OVA). After 16 hours, cells were washed twice and 2.5×10^4 MDSC co-cultured with 1×10^5 CFSE-labeled naïve CD8^+ T cells from spleens of OT-I mice (ratio 0.25:1). Positive controls included co-cultures of OT-I T cells with GM-CSF plus IL-4-derived BM-DCs loaded with 1 μg/ml complete OVA. For TME cross-priming assays, 1.25×10^4 MDSC from Pan02-Ova-ZsGreen tumors were co-cultured with 5×10^4 naïve CD8^+ T cells (1/4:1) from spleens of OT-I mice and labelled with Cell-trace violet. Positive control wells included OT-I T cells co-cultured with GM-CSF plus IL-4-derived BM-DCs loaded with 1 μg/ml OVA257-264 peptide. T cell proliferation was measured after 3 days of co-culture.

human BM-MDSC = test: In vitro suppression assay with human BM-MDSC; format: cell-based
Protocol: as §2
as §1, with “For human studies, MDSC were co-cultured with enriched CD3^+ T cells activated with soluble α-CD3 (1 μg/ml, clone OKT3) and α-CD28 (0.5 μg/ml, clone L293) for 3 days in a 96 well plate bound with goat anti-mouse IgG (10 μg/ml).” left out

[5] = Blood glucose and pancreatic islets in B16-bearing mice; format: in vivo; conditions: B16-bearing mice treated for a week; GSK2606414 25 mg/kg or AMG-44 12 mg/kg; day 17
Text: Hematoxylin and Eosin (H&E) stained slides were scanned in an Aperio AT2 whole slide scanner (Leica Biosystems Inc.) equipped with a 20×0.7NA objective lens Images were created at 0.5 micron per pixel resolution and imported into Definiens Tissue Studio software v4.7 (Definiens AG) for analysis. Islets were found using a semi-automated segmentation process. First an automatic segmentation was applied to the image to create contour lines around objects within the image. Objects that contained islets were classified as such and remaining objects were classified as non-islet tissue. Next, adjacent objects of the same classification were merged together to clean up the segmentation. Segmented images were analyzed to provide the total area of islets Immunofluorescence for mouse insulin in pancreas tissue sections was performed as we described (Sultan et al., 2017). Labeled samples were scanned with a Zeiss Imager Z2 Upright FL microscope with a 10× objective lens using the tile scan function. Images were created at a
0.65 micron per pixel resolution and imported into the Definiens Tissue Studio software v4.7 (Definiens AG) for islet detection and analysis. Islets were detected using a semi-automated segmentation process. First, an automatic segmentation was applied to the image to detect the tissue. Then, the software was trained to detect islet vs. non-islet tissue within the image. In order to remove false detected islets caused by background staining, detected islets larger than 150,000 square microns and less than 600 square microns were reclassified to non-islet tissue. Segmented images were then analyzed to provide the fluorescent intensity of islets and total tissue area.

[6] = cited from earlier work
[7] = LLC, SFRN 25 mg/kg i.p., 3 days per week
[8] = mice treated with TUDCA vs controls
[9] = BM-MDSC, Thaps 200 nM, last 24 hours
[10] = LLC-bearing mice, Thaps 100 μg/kg i.p. vs vehicle

Compound: C[S+]([O-])CCCCN=C=S (stereo not drawn) [SFRN, Sulforaphane]
- ROS levels in tumor Eif2ak3^KO-Lyz2 MDSC (tumor-MDSC [1]): reduced ROS levels
- ROS levels and immunoregulatory potential of control MDSC (tumor-MDSC [2]; LLC-bearing Eif2ak3^Flox mice treated with SFRN): without affecting controls
- immunoregulatory potential of tumor Eif2ak3^KO-Lyz2 MDSC (tumor-MDSC [2]; LLC-bearing mice treated with SFRN, 1:1/4): restored the immunoregulatory potential
- OCR of tumor-MDSC (tumor-MDSC [3]): elevated OCR
- potential of Thaps-treated Eif2ak3^KO-Tek BM-MDSC to impair T cell proliferation (murine BM-MDSC): partially restored the potential
- anti-tumor effects found in Eif2ak3^KO-Lyz2 mice (LLC tumors; [7]): disabled the anti-tumor effects
- tumor progression in Eif2ak3^Flox mice (LLC tumors; [7]): delaying tumor progression
- Ifnβ1 mRNA in tumor-MDSC from Eif2ak3^KO-Lyz2 mice (Ifnβ1 mRNA): reduced Ifnβ1 mRNA levels

Compound: Oc1ccc(C=Cc2cc(O)cc(O)c2)cc1 [Resveratrol]
- potential of Thaps-treated Eif2ak3^KO-Tek BM-MDSC to impair T cell proliferation (murine BM-MDSC): partially restored the potential

Compound: C[C@H](CCC(=O)NCCS(=O)(=O)O)[C@H]1CC[C@H]2[C@@H]3[C@@H](O)C[C@@H]4C[C@H](O)CC[C@]4(C)[C@H]3CC[C@]12C [TUDCA, Tauroursodeoxycholic acid]
- ability to block T cell proliferation (tumor-MDSC [2]; LLC tumor-MDSC pre-treated ex vivo with TUDCA for 24 hours): impaired the ability
- ability of tumor-MDSC to block T cell proliferation (tumor-MDSC [2]; tumor-MDSC (1:1/4) from LLC or B16 bearing mice treated with TUDCA vs vehicle): lower ability to block T cell proliferation
- levels of Arginase I in tumor-MDSC (Arginase I): reduced levels of the inhibitory factor Arginase I
- ability to block T cell proliferation (murine BM-MDSC; murine BM-MDSC developed after exposing BM-iMC to TES, TUDCA in culture): impaired the ability
- expansion of recently activated CD69+ CD44+ CD8+ T cells in tumors (CD8+ TILs; B16-bearing mice treated with TUDCA): Higher expansion
- EGSRNQDWL-H-2D^b-tetramer+ CD8+ T cells recognizing gp100 (CD8+ TILs; B16-bearing mice, single treatment): promoted the spontaneous expansion
- recently activated CD69+ CD44+ CD8+ T cells (CD8+ TILs; B16-bearing mice, single treatment (anti-Gr1 experiment)): promoted the spontaneous expansion
- expansion of recently activated CD69+ CD44+ CD8+ T cells in tumors (CD8+ TILs; LLC-bearing mice treated with TUDCA): Higher expansion
- expression of phospho-PERK in tumor-MDSC (PERK; [8]): lower expression of phospho-PERK
- expression of phospho-IRE1α in tumor-MDSC (IRE1α; [8]): lower expression of phospho-PERK and phospho-IRE 1α
- tumor growth (B16 tumors; established B16 tumors, TUDCA 250 mg/kg daily after day 6 vs vehicle): delayed tumor growth
- capacity of tumor-MDSC to prime OT-I T cell proliferation [4]: higher capacity to prime OT-I T cell proliferation
- expression of SIINFEKL-bound H-2K^b in tumor-MDSC [4]: heightened expression
- ability to block T cell proliferation (human BM-MDSC; human BM-MDSC conditioned with hTES, TUDCA in culture): impaired the ability
- anti-tumor actions in immunodeficient Rag1^KO mice (LLC tumors; LLC tumors, TUDCA, Rag1^KO vs wild type mice): not found
- tumor growth (LLC tumors; established LLC tumors, TUDCA 250 mg/kg daily after day 6 vs vehicle): delayed tumor growth

Compound: C/C=C(/C)C(=O)O[C@H]1C(C)=C2[C@H]([C@@H]1OC(=O)CCCCCCC)[C@@](C)(OC(C)=O)C[C@H](OC(=O)CCC)[C@@]1(O)[C@H]2OC(=O)[C@@]1(C)O [Thaps, Thapsigargin]
- immunoregulatory potential of tumor-MDSC (tumor-MDSC [2]; tumor-MDSC from LLC-bearing mice treated with Thaps): elevated the immunoregulatory potential of tumor-MDSC
- ability to block T cell proliferation (murine BM-MDSC; murine BM-MDSC, Thaps 200 nM, last 24 hours): enhanced ability to block T cell proliferation
- total and phosphorylated PERK (PERK; [9]): upregulation of total and phosphorylated PERK
- total and phosphorylated IRE1α (IRE1α; [9]): upregulation of total and phosphorylated PERK and IRE1α
- ability to block T cell proliferation (human BM-MDSC; human BM-MDSC, Thaps, last 24 hours): enhanced ability to block T cell proliferation
- expansion of splenic-MDSC (LLC tumors; [10]): increased the expansion of splenic-MDSC
- tumor progression (LLC tumors; [10]): promoted tumor progression

Compound: Cn1cc(-c2ccc3c(c2)CCN3C(=O)Cc2cccc(C(F)(F)F)c2)c2c(N)ncnc21 [GSK-2606414]
- immunoinhibitory activity of MDSC (tumor-MDSC [2]; MDSC from tumors of GSK-2606414 treated B16-bearing mice): lower immunoinhibitory activity of MDSC
- glucose levels in the serum [5]: failed to show alterations in glucose levels
- frequency of IFNγ-producing CD8+ T cells in tumors (CD8+ TILs; B16, GSK2606414 25 mg/kg or AMG-44 12 mg/kg, 17 days post-tumor injection): amplified the frequency of IFNγ-producing CD8^+ T cells in tumors
- tumor growth (B16 tumors; B16-bearing mice, GSK-2606414 25 mg/kg i.p. daily vs vehicle): Delayed tumor growth
- tumor growth (B16 tumors; B16, daily i.p. GSK2606414 25 mg/kg or AMG-44 12 mg/kg from day 7): delayed tumor growth
- hyperglycemia at high doses ([6]; 150 mg/kg, orally twice a day, previous studies): induced hyperglycemia
- limitation for therapeutic use ([6]; Yu et al., 2015): induction of hyperglycemia as a result of pancreatic islet degeneration

From patent US20230107770A1, “METHOD OF ENHANCING IMMUNOTHERAPY USING ER STRESS PATHWAY INHIBITORS” (H. LEE MOFFITT CANCER CENTER AND RESEARCH INSTITUTE, INC., priority 2020, published 2023)
